Data published in PubChem BioAssay AID248 (DTP/NCI, 2004).
Toxic doses and inconclusive results are not listed. No stated cut-off is given here; in the data, active means T/C of 150% or more; inactive means T/C below 125%. Square brackets hold non-standard residues; d marks the D form. Peptide text beside a SMILES is read from it. * marks the point of attachment. NMeY = CN[CH](Cc1ccc(O)cc1)C(=O)O; Bn = c1ccc(C*)cc1

Tested on: L1210 leukemia ip in BDF1 mice, survival T/C
Assay: NCI In Vivo Anticancer Drug Screen. Data for tumor model L1210 Leukemia (intraperitoneal) in B6D2F1 (BDF1) mice
Conditions: endpoint: mean survival time, higher = longer survival
How it was run: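 Tumor was transplanted into mice, which were then dosed with test compound or vehicle alone. Survival was recorded for each group, and the treated figure was expressed relative to the control figure.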

[1] = dose: 100.0 mg/kg/injection, schedule: Q01DX009 (ip), vehicle: saline
[2] = dose: 100.0 mg/kg/injection, schedule: Q04DX003 (ip), vehicle: saline
[3] = dose: 200.0 mg/kg/injection, schedule: Q04DX003 (ip), vehicle: saline
[4] = dose: 100.0 mg/kg/injection, schedule: Q01DX009 (ip), vehicle: Klucel (hydroxypropylcellulose) (HPC)
[5] = dose: 200.0 mg/kg/injection, schedule: Q01DX009 (ip), vehicle: Klucel (hydroxypropylcellulose) (HPC)
[6] = dose: 100.0 mg/kg/injection, schedule: Q04DX003 (ip), vehicle: saline with Tween-80
[7] = dose: 200.0 mg/kg/injection, schedule: Q04DX003 (ip), vehicle: saline with Tween-80
[8] = dose: 400.0 mg/kg/injection, schedule: Q04DX003 (ip), vehicle: saline with Tween-80
[9] = dose: 100.0 mg/kg/injection, schedule: Q04DX002 (ip), vehicle: Klucel (hydroxypropylcellulose) (HPC)

Measured: T/C

COc1ccc(/C=N/NC(=O)c2ccccc2OC)cc1
inactive: [1] 108 % of control | [2] 108 % of control | dose: 130.0 mg/kg/injection, schedule: Q01DX009 (ip), vehicle: saline 104 % of control | dose: 200.0 mg/kg/injection, schedule: Q01DX009 (ip), vehicle: saline 92 % of control | [3] 102 % of control | dose: 300.0 mg/kg/injection, schedule: Q01DX009 (ip), vehicle: saline 92 % of control | dose: 400.0 mg/kg/injection, schedule: Q01DX009 (ip), vehicle: saline 114 % of control | dose: 400.0 mg/kg/injection, schedule: Q04DX003 (ip), vehicle: saline 102 % of control

CC(C)=CCNc1ncnc2c1nnn2C1OC(CO)C(O)C1O (centres undefined)
inactive: dose: 100.0 mg/kg/injection, schedule: Q01DX001 (ip), vehicle: water 105 % of control | dose: 200.0 mg/kg/injection, schedule: Q01DX001 (ip), vehicle: water 101 % of control | dose: 400.0 mg/kg/injection, schedule: Q01DX001 (ip), vehicle: water 101 % of control

CNC(=O)NNC(=O)CNC(=O)Nc1ccc(Cl)c(Cl)c1
inactive: [4] 106 % of control | [5] 93 % of control | dose: 400.0 mg/kg/injection, schedule: Q01DX009 (ip), vehicle: Klucel (hydroxypropylcellulose) (HPC) 97 % of control

Cc1c2cnccc2c(C)c2c1c1ccccc1n2CCCl
inactive: dose: 31.25 mg/kg/injection, schedule: Q01DX009 (ip), vehicle: saline with Tween-80 106 % of control | dose: 37.5 mg/kg/injection, schedule: Q04DX003 (ip), vehicle: saline 93 % of control | dose: 62.5 mg/kg/injection, schedule: Q01DX009 (ip), vehicle: saline with Tween-80 109 % of control | dose: 75.0 mg/kg/injection, schedule: Q04DX003 (ip), vehicle: saline 97 % of control | dose: 150.0 mg/kg/injection, schedule: Q04DX003 (ip), vehicle: saline 98 % of control | dose: 300.0 mg/kg/injection, schedule: Q04DX003 (ip), vehicle: saline 100 % of control

C[C@@H]1CC2=CC(=O)C=C[C@]2(C)[C@H]2CC[C@@]3(C)[C@@H](CC[C@]3(C)O)[C@H]12
inactive: dose: 100.0 mg/kg/injection, schedule: Q01DX001 (sc), vehicle: steriod suspending solution 104 % of control | dose: 200.0 mg/kg/injection, schedule: Q01DX001 (sc), vehicle: steriod suspending solution 106 % of control | dose: 400.0 mg/kg/injection, schedule: Q01DX001 (sc), vehicle: steriod suspending solution 97 % of control

CCC(O)(C1=NC(C)(C)CO1)c1ccncc1Br (centres undefined)
inactive: dose: 100.0 mg/kg/injection, schedule: Q01DX001 (ip), vehicle: Klucel (hydroxypropylcellulose) (HPC) 100 % of control | dose: 200.0 mg/kg/injection, schedule: Q01DX001 (ip), vehicle: Klucel (hydroxypropylcellulose) (HPC) 94 % of control | dose: 400.0 mg/kg/injection, schedule: Q01DX001 (ip), vehicle: Klucel (hydroxypropylcellulose) (HPC) 97 % of control

COc1ccccc1-n1c(O)c(N=Nc2ccccc2C)c(=O)n(-c2ccc(Br)cc2)c1=S
inactive: dose: 37.5 mg/kg/injection, schedule: Q01DX001 (ip), vehicle: Klucel (hydroxypropylcellulose) (HPC) 94 % of control | dose: 75.0 mg/kg/injection, schedule: Q01DX001 (ip), vehicle: Klucel (hydroxypropylcellulose) (HPC) 106 % of control | dose: 150.0 mg/kg/injection, schedule: Q01DX001 (ip), vehicle: Klucel (hydroxypropylcellulose) (HPC) 87 % of control

COc1ccc(NC(=O)Oc2ccccc2-c2ccccc2)cc1
inactive: [6] 91 % of control | [7] 91 % of control | [8] 86 % of control

O=c1cnc2ccc3ccccc3c2[nH]1
inactive: dose: 25.0 mg/kg/injection, schedule: Q04DX002 (ip), vehicle: Klucel (hydroxypropylcellulose) (HPC) 97 % of control | dose: 50.0 mg/kg/injection, schedule: Q04DX002 (ip), vehicle: Klucel (hydroxypropylcellulose) (HPC) 93 % of control | [9] 90 % of control

CC(=O)C(=O)Nc1ccccc1
inactive: dose: 100.0 mg/kg/injection, schedule: Q01DX001 (ip), vehicle: saline with Tween-80 94 % of control | dose: 200.0 mg/kg/injection, schedule: Q01DX001 (ip), vehicle: saline with Tween-80 91 % of control | dose: 400.0 mg/kg/injection, schedule: Q01DX001 (ip), vehicle: saline with Tween-80 94 % of control

Cc1cccc2c(C(=O)O)cc(-c3ccc(Cl)cc3)nc12
inactive: dose: 50.0 mg/kg/injection, schedule: Q01DX009 (ip), vehicle: saline with Tween-80 91 % of control

CNc1n[nH]c(=S)s1
inactive: [9] 101 % of control | dose: 200.0 mg/kg/injection, schedule: Q04DX002 (ip), vehicle: Klucel (hydroxypropylcellulose) (HPC) 104 % of control | dose: 400.0 mg/kg/injection, schedule: Q04DX002 (ip), vehicle: Klucel (hydroxypropylcellulose) (HPC) 104 % of control

CCN(CC)CCNC(=O)Nc1ccc(OC)cc1
inactive: [4] 96 % of control | [5] 103 % of control

CNC(Cc1ccc(OCc2ccccc2)cc1)C(=O)NC(CC(C)C)C(=O)OC (centres undefined) (H-[NMeY](Bn)-Leu-OMe; configuration not given here)
inactive: dose: 50.0 mg/kg/injection, schedule: Q01DX009 (ip), vehicle: saline 97 % of control | [1] 100 % of control | [2] 104 % of control | [3] 102 % of control

O=c1ccn(O)cc1
inactive: dose: 100.0 mg/kg/injection, schedule: Q04DX002 (ip), vehicle: other 96 % of control | dose: 200.0 mg/kg/injection, schedule: Q04DX002 (ip), vehicle: other 100 % of control | dose: 400.0 mg/kg/injection, schedule: Q04DX002 (ip), vehicle: other 88 % of control

CC1CC=CC(N2C(=O)c3ccccc3C2=O)C1 (centres undefined)
inactive: dose: 200.0 mg/kg/injection, schedule: Q01DX001 (ip), vehicle: carboxymethylcellulose (CMC) 91 % of control | dose: 400.0 mg/kg/injection, schedule: Q01DX001 (ip), vehicle: carboxymethylcellulose (CMC) 93 % of control

CN(CCO)N=Nc1ccccc1Cl
inactive: dose: 25.0 mg/kg/injection, schedule: Q01DX009 (ip), vehicle: other 101 % of control | dose: 50.0 mg/kg/injection, schedule: Q01DX009 (ip), vehicle: other 100 % of control | dose: 100.0 mg/kg/injection, schedule: Q01DX009 (ip), vehicle: other 94 % of control

COC1OC(CBr)C(OC(C)=O)C(OC(C)=O)C1OC(C)=O (centres undefined)
inactive: [6] 93 % of control | [7] 98 % of control | [8] 98 % of control

CCOC(=O)/C(O)=C\c1ccc(OC)n[n+]1[O-]
inactive: dose: 35.0 mg/kg/injection, schedule: Q04DX002 (ip), vehicle: Klucel (hydroxypropylcellulose) (HPC) 104 % of control | dose: 70.0 mg/kg/injection, schedule: Q04DX002 (ip), vehicle: Klucel (hydroxypropylcellulose) (HPC) 104 % of control | dose: 140.0 mg/kg/injection, schedule: Q04DX002 (ip), vehicle: Klucel (hydroxypropylcellulose) (HPC) 104 % of control

Cc1ccc(/C=C/S(=O)(=O)c2ccccc2)cc1
inactive: dose: 100.0 mg/kg/injection, schedule: Q01DX001 (ip), vehicle: acetone 109 % of control | dose: 100.0 mg/kg/injection, schedule: Q01DX009 (ip), vehicle: acetone 87 % of control | dose: 100.0 mg/kg/injection, schedule: Q04DX003 (ip), vehicle: acetone 97 % of control | dose: 200.0 mg/kg/injection, schedule: Q01DX001 (ip), vehicle: acetone 98 % of control | dose: 200.0 mg/kg/injection, schedule: Q01DX009 (ip), vehicle: acetone 87 % of control | dose: 200.0 mg/kg/injection, schedule: Q04DX003 (ip), vehicle: acetone 103 % of control | dose: 400.0 mg/kg/injection, schedule: Q01DX001 (ip), vehicle: acetone 98 % of control | dose: 400.0 mg/kg/injection, schedule: Q01DX009 (ip), vehicle: acetone 88 % of control | dose: 400.0 mg/kg/injection, schedule: Q04DX003 (ip), vehicle: acetone 105 % of control

NS(=O)(=O)CCCCCCN1C(=O)c2ccccc2C1=O
inactive: [6] 91 % of control | [7] 93 % of control | [8] 93 % of control
